Measurements reported in patent US8252737B2, “Antimicrobial peptides and methods of use” (priority 2004, dated 2012).
Converted amounts (≈) assume the structure as drawn. Square brackets hold non-standard residues; d marks the D form. Peptide text beside a SMILES is read from it.

Key:
[1] = RP-HPLC temperature profiling (hydrophobicity and self-association/dimerization parameter PA); type: physicochemical; conditions: for tR (min) 5° C.: RP-HPLC retention time at 5° C. during temperature profiling (measure of hydrophobicity); for tR (min) 80° C.: RP-HPLC retention time at 80° C. during temperature profiling; for tR (min) Max: maximal RP-HPLC retention time during temperature profiling 5-80° C.; for PA (min) association parameter: maximal retention time difference relative to control peptide C within 5-80° C.; for ΔtR (X-NVL) (min) 5° C. / ΔtR (X-NVL) (min) 80° C. / decrease in hydrophobicity relative to NVL (V681): non-polar face substitutions; for ΔtR (X-NVL) (min) 5° C.: retention time difference relative to native peptide V681 (NVL) at 5° C.; for ΔtR (X-NVL) (min) 80° C.: retention time difference relative to native peptide V681 (NVL) at 80° C.; for decrease in hydrophobicity relative to NVL (V681): RP-HPLC retention time difference at 80° C.
Method in brief: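 RP-HPLC retention times recorded over temperature profiling from 5°C to 80°C, with retention relative to native V681 at each limit used as hydrophobicity. Self-association parameter PA defined as the maximal change in retention time from 5°C, after subtracting that of monomeric random-coil control peptide C.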

[2] = test system: gram-negative bacteria; test: MIC, microtiter dilution, Gram-negative bacteria (geometric mean of 6 strains); type: cell-based; conditions: for MIC (μg/ml) Gram-negative: geometric mean MIC, Table 9
Procedure: The geometric mean MIC values from 6 microbial strains in this table were calculated to provide an overall evaluation of antimicrobial activity against gram-negative bacteria.
In Table 11, geometric mean MIC was calculated to provide an overall view of antimicrobial activity of the peptides against Gram-negative bacteria and was also used to calculate the therapeutic index.
Measurement of Antimicrobial Activity—Minimal inhibitory concentrations (MICs) were determined using a standard microtiter dilution method in LB (Luria-Bertani) no-salt medium (10 g of tryptone and 5 g of yeast extract per liter). Briefly, cells were grown overnight at 37° C. in LB and diluted in the same medium. […] Plates were incubated at 37° C. for 24 hours and MICs determined as the lowest peptide concentration that inhibited growth. Alternatively, minimal inhibitory concentrations were determined using a standard microtiter dilution method in a Mueller-Hinton (MH) medium. Briefly, cells were grown overnight at 37° C. in MH broth and diluted in the same medium. […] Plates were incubated at 37° C. for 24 hours and MICs determined as the lowest peptide concentration that inhibited growth. However, for MIC determination of Pseudomonas aeruginosa clinical isolates, brain heart infusion (BH1) medium was used instead of MH broth. In addition, the bacteria were diluted to a final inoculum of 1×10^6 colony-forming units/ml.

Molecule | tR (min) 5° C. [1] | tR (min) 80° C. [1] | tR (min) Max [1] | PA (min) association parameter [1] | ΔtR (X-NVL) (min) 5° C. ([1]; relative hydrophobicity) | ΔtR (X-NVL) (min) 80° C. ([1]; relative hydrophobicity) | MIC (μg/ml) Gram-negative [2] | ΔtR (X-PSL) (min) 5° C. ([1]; polar face substitutions, retention time difference relative to native peptide V681 (PSL) at 5° C., relative hydrophobicity) | ΔtR (X-PSL) (min) 80° C. ([1]; polar face substitutions, retention time difference relative to native peptide V681 (PSL) at 80° C., relative hydrophobicity) | Hydrophobicity tR5 ([1]; RP-HPLC retention time at pH 2, 5° C.) | Hydrophobicity tR80 ([1]; RP-HPLC retention time at pH 2, 80° C.) | decrease in hydrophobicity relative to NVL (V681) [1] | PA (dimerization / self-association parameter) ([1]; maximal retention time difference relative to control peptide C, 5-80° C.) | geometric mean MIC against Gram-negative bacteria ([2]; 6 strains of Table 7) | MIC (μg/ml) GM ([2]; geometric mean of MIC values from all 6 Gram-negative strains of Table 11) | fold improvement on the average MIC compared to V681 ([2]; gram-negative bacteria, geometric mean comparison, Table 7)
CC[C@H](C)[C@H](NC(=O)[C@H](C)NC(=O)[C@H](CCCCN)NC(=O)[C@H](CC(C)C)NC(=O)[C@H](C)NC(=O)[C@@H](NC(=O)[C@H](Cc1c[nH]cn1)NC(=O)[C@H](CC(C)C)NC(=O)[C@@H](NC(=O)[C@@H](NC(=O)[C@H](CCCCN)NC(=O)[C@@H](CCCCN)NC(=O)[C@H](C)NC(=O)[C@H](CO)NC(=O)[C@H](CCCCN)NC(=O)[C@H](Cc1ccccc1)NC(=O)[C@@H](NC(=O)[C@H](CCCCN)NC(=O)[C@H](CC(C)C)NC(=O)[C@H](Cc1ccccc1)NC(=O)[C@H](CO)NC(=O)[C@H](CCCCN)NC(=O)[C@H](Cc1c[nH]c2ccccc12)NC(=O)[C@H](CCCCN)NC(C)=O)[C@@H](C)O)[C@@H](C)O)C(C)C)[C@@H](C)O)C(=O)N[C@@H](CO)C(=O)N[C@@H](CO)C(N)=O [NKD] | 34.05 min | 30.96 min | 34.05 min | 1.10 min | -14.05 min | -14.87 min | 7.7 µg/mL (≈ 2.57 µM) | – | – | – | – | – | – | – | – | –
CC[C@H](C)[C@H](NC(=O)[C@H](C)NC(=O)[C@H](CCCCN)NC(=O)[C@H](CC(C)C)NC(=O)[C@H](C)NC(=O)[C@@H](NC(=O)[C@H](Cc1c[nH]cn1)NC(=O)[C@H](CC(C)C)NC(=O)[C@@H](NC(=O)[C@@H](NC(=O)[C@H](CCCCN)NC(=O)[C@@H](NC(=O)[C@H](C)NC(=O)[C@@H](CC(C)C)NC(=O)[C@H](CCCCN)NC(=O)[C@H](Cc1ccccc1)NC(=O)[C@@H](NC(=O)[C@H](CCCCN)NC(=O)[C@H](CC(C)C)NC(=O)[C@H](Cc1ccccc1)NC(=O)[C@H](CO)NC(=O)[C@H](CCCCN)NC(=O)[C@H](Cc1c[nH]c2ccccc12)NC(=O)[C@H](CCCCN)NC(C)=O)[C@@H](C)O)C(C)C)[C@@H](C)O)C(C)C)[C@@H](C)O)C(=O)N[C@@H](CO)C(=O)N[C@@H](CO)C(N)=O [PLD] (Ac-KWKSFLKTFK[dL]AVKTVLHTALKAISS-NH2) | 44.73 min | 42.14 min | 45.85 min | 2.82 min | – | – | 5.0 µg/mL (≈ 1.67 µM) | -3.37 min | -3.69 min | – | – | – | – | – | – | –
CC[C@H](C)[C@H](NC(=O)[C@H](C)NC(=O)[C@H](CCCCN)NC(=O)[C@H](CC(C)C)NC(=O)[C@H](C)NC(=O)[C@@H](NC(=O)[C@H](Cc1cnc[nH]1)NC(=O)[C@H](CC(C)C)NC(=O)[C@@H](NC(=O)[C@@H](NC(=O)[C@H](CCCCN)NC(=O)[C@H](CCCCN)NC(=O)[C@H](C)NC(=O)[C@H](CO)NC(=O)[C@H](CCCCN)NC(=O)[C@H](Cc1ccccc1)NC(=O)[C@@H](NC(=O)[C@H](CCCCN)NC(=O)[C@H](CC(C)C)NC(=O)[C@H](Cc1ccccc1)NC(=O)[C@H](CO)NC(=O)[C@H](CCCCN)NC(=O)[C@H](Cc1c[nH]c2ccccc12)NC(=O)[C@H](CCCCN)NC(C)=O)[C@@H](C)O)[C@@H](C)O)C(C)C)[C@@H](C)O)C(=O)N[C@@H](CO)C(=O)N[C@@H](CO)C(N)=O [NKL] | 36.85 min | 33.22 min | 36.91 min | 1.10 min | -11.25 min | -12.61 min | – | – | – | 74.9 min | 64.7 min | -12.61 min | 2.1 | 3.1 µg/mL | 3.9 µg/mL (≈ 1.3 µM) | 2.8
CC[C@H](C)[C@H](NC(=O)[C@H](C)NC(=O)[C@H](CCCCN)NC(=O)[C@H](CC(C)C)NC(=O)[C@H](C)NC(=O)[C@@H](NC(=O)[C@H](Cc1c[nH]cn1)NC(=O)[C@H](CC(C)C)NC(=O)[C@@H](NC(=O)[C@@H](NC(=O)[C@H](CCCCN)NC(=O)[C@@H](CO)NC(=O)[C@H](C)NC(=O)[C@H](CO)NC(=O)[C@H](CCCCN)NC(=O)[C@H](Cc1ccccc1)NC(=O)[C@@H](NC(=O)[C@H](CCCCN)NC(=O)[C@H](CC(C)C)NC(=O)[C@H](Cc1ccccc1)NC(=O)[C@H](CO)NC(=O)[C@H](CCCCN)NC(=O)[C@H](Cc1c[nH]c2ccccc12)NC(=O)[C@H](CCCCN)NC(C)=O)[C@@H](C)O)[C@@H](C)O)C(C)C)[C@@H](C)O)C(=O)N[C@@H](CO)C(=O)N[C@@H](CO)C(N)=O [NSD] (Ac-KWKSFLKTFKSA[dS]KTVLHTALKAISS-NH2) | 37.02 min | 34.08 min | 37.12 min | 1.46 min | -11.08 min | -11.75 min | 6.3 µg/mL (≈ 2.14 µM) | – | – | – | – | – | – | – | – | –
CC[C@H](C)[C@H](NC(=O)[C@H](C)NC(=O)[C@H](CCCCN)NC(=O)[C@H](CC(C)C)NC(=O)[C@H](C)NC(=O)[C@@H](NC(=O)[C@H](Cc1c[nH]cn1)NC(=O)[C@H](CC(C)C)NC(=O)[C@@H](NC(=O)[C@@H](NC(=O)[C@H](CCCCN)NC(=O)[C@H](NC(=O)[C@H](C)NC(=O)[C@H](CO)NC(=O)[C@H](CCCCN)NC(=O)[C@H](Cc1ccccc1)NC(=O)[C@@H](NC(=O)[C@H](CCCCN)NC(=O)[C@H](CC(C)C)NC(=O)[C@H](Cc1ccccc1)NC(=O)[C@H](CO)NC(=O)[C@H](CCCCN)NC(=O)[C@H](Cc1c[nH]c2ccccc12)NC(=O)[C@H](CCCCN)NC(C)=O)[C@@H](C)O)C(C)C)[C@@H](C)O)C(C)C)[C@@H](C)O)C(=O)N[C@@H](CO)C(=O)N[C@@H](CO)C(N)=O [NVD] | 42.55 min | 40.15 min | 43.43 min | 2.63 min | -5.55 min | -5.68 min | 3.3 µg/mL (≈ 1.11 µM) | – | – | – | – | – | – | – | – | –
Ac-KWKSFLKTFKSAGKTVLHTALKAISS-NH2 [NG] | 39.96 min | 36.74 min | 40.22 min | 1.64 min | -8.14 min | -9.09 min | 4.1 µg/mL | – | – | – | – | – | – | – | – | –
CC[C@H](C)[C@H](NC(=O)[C@H](C)NC(=O)[C@H](CCCCN)NC(=O)[C@H](CC(C)C)NC(=O)[C@H](C)NC(=O)[C@@H](NC(=O)[C@H](Cc1c[nH]cn1)NC(=O)[C@H](CC(C)C)NC(=O)[C@@H](NC(=O)[C@@H](NC(=O)[C@H](CCCCN)NC(=O)[C@H](C)NC(=O)[C@H](C)NC(=O)[C@H](CO)NC(=O)[C@H](CCCCN)NC(=O)[C@H](Cc1ccccc1)NC(=O)[C@@H](NC(=O)[C@H](CCCCN)NC(=O)[C@H](CC(C)C)NC(=O)[C@H](Cc1ccccc1)NC(=O)[C@H](CO)NC(=O)[C@H](CCCCN)NC(=O)[C@H](Cc1c[nH]c2ccccc12)NC(=O)[C@H](CCCCN)NC(C)=O)[C@@H](C)O)[C@@H](C)O)C(C)C)[C@@H](C)O)C(=O)N[C@@H](CO)C(=O)N[C@@H](CO)C(N)=O [NAL] | 43.94 min | 41.38 min | 44.88 min | 2.59 min | -4.16 min | -4.45 min | 3.8 µg/mL (≈ 1.3 µM) | – | – | – | – | -4.45 min | – | – | – | –
